Data taken from patent US12310955B2 (priority 2020, dated 2025).
Read-outs that look alike come from different tables or passages of the source.

Tested on: recombinant rabies virus 1088 strain expressing Gaussia Luciferase (1088/GLuc)
Experiment: microbe, parasite or virus in culture
Format: cell-based

Cc1ccc2c(CN3CC4CC5(C(=O)NCC6CCCCCC6)NC(=O)C4C3C5CC(C)C)cn(C(=O)OC(C)(C)C)c2c1 (racemic) [IF-782]
IC50 (read-out: Anti-rabies activity): 10 to 30 µM

Cc1ccc2c(C[C@@H]3[C@H]4C[C@H]5CN[C@@H]3[C@@]5(C(=O)NCC3CCCCCC3)N(CC(C)C)C4=O)cn(C(=O)OC(C)(C)C)c2c1 [IB-814]
IC50 (read-out: Anti-rabies activity): 10 to 30 µM

CC(C)CN1C(=O)[C@@H]2C[C@H]3CN[C@@H]([C@@H]2Cc2c[nH]c4cc(F)ccc24)[C@]31C(=O)NCC1CCCCCC1 [IB-817]
IC50 (read-out: Anti-rabies activity): 10 to 30 µM

NC(=O)c1nc(F)c[nH]c1=O [Compound T-705, reference compound]
IC50 (Lyssavirus rabies, N2a, 72 h, read-out: anti-rabies virus activity IC50): 30 µM

COc1ccc(CN2C[C@H]3C[C@]4(C(=O)NCc5ccccc5)NC(=O)[C@H]3[C@H]2[C@H]4CC(C)C)cc1 (relative stereo) [Compound I-5, (3S*,3aR*,6S*,7R*,7aR*)-N-benzyl-7-isobutyl-1-(4-methoxybenzyl)-4-oxooctahydro-6H-3,6-methanopyrrolo[3,2-c]pyridine-6-carboxamide]
IC50 (Lyssavirus rabies, N2a, 72 h, read-out: Anti-rabies activity): < 5 µM
